Data as given in patent US12570662B2, “Substituted pyrrolo[1,2-b]pyridazines as bifunctional degraders of interleukin-1 receptor-associated kinases” (Nurix Therapeutics, Inc., priority 2021, dated 2026).

Target: T1, IRAK4 (Homo sapiens, UniProt Q9NWZ3)
T1 construct: C-terminal HiBiT-tagged Jurkat cells (polyclonal cell line or clone 8D5); endogenous in cells; host or cells: Jurkat cells (polyclonal cell line or clone 8D5), HiBiT-tagged
T1 sequence (Q9NWZ3 1-460): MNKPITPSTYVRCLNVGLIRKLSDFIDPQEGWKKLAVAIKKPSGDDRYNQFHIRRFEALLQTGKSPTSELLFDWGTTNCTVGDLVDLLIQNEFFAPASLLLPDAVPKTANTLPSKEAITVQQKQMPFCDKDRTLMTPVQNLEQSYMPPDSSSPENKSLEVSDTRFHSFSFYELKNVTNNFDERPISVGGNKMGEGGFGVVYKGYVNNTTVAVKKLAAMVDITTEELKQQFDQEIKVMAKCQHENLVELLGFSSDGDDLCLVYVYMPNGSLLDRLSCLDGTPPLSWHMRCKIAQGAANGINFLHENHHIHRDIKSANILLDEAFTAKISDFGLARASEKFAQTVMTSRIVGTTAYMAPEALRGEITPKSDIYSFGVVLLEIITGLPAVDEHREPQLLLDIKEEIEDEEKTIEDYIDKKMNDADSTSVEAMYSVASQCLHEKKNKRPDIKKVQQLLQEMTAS
Assay: IRAK4 Degradation HiBit Assay
Format: cell-based
Settings: C-terminal HiBiT-tagged Jurkat cells, 4 hrs incubation; for DC50: % IRAK4 remaining, four-parameter fit (IC50 used as DC50); for Dmax: from fit of % IRAK4 remaining, read-out: Dmax
How it was run: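 Jurkat cells carrying C-terminal HiBiT-tagged IRAK4 (polyclonal or clone 8D5) exposed to compound, 10 μM–0.1 nM final over 11 points, for 4 h at 32 °C. Remaining IRAK4 measured by lytic HiBiT/LgBiT luminescence relative to DMSO. DC50 and Dmax taken from four-parameter variable-slope fits.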

| DC50 [nM] | Dmax [%] | Compound |
| --- | --- | --- |
| 64 | 25 | N#Cc1cnn2c(-c3cc(NC4CCOCC4)c(-c4nnc(C56CCC(CN7CCc8cc(C9CCC(=O)NC9=O)ccc8C7)(CC5)CC6)s4)cn3)ccc2c1 (racemic) [Example 90, rac-7-(5-{5-[4-({6-[(3R)-2,6-dioxopiperidin-3-yl]-1,2,3,4-tetrahydroisoquinolin-2-yl}methyl)bicyclo[2.2.2]octan-1-yl]-1,3,4-thiadiazol-2-yl}-4-[(oxan-4-yl)amino]pyridin-2-yl)pyrrolo[1,2-b]pyridazine-3-carbonitrile] |
| 1050 | 83 | CNc1cc(-c2ccc3cc(C#N)cnn23)ncc1-c1nnc(N2CCN(CC3CCN(c4ccc([C@H]5CCC(=O)NC5=O)cn4)CC3)CC2)s1 (single isomer, unassigned) [Example 41] |
| 27 | 105 | CCN(C(=O)C1CCN(c2ccc([C@@H]3CCC(=O)NC3=O)cn2)CC1)[C@H]1CC[C@H](c2nnc(-c3cnc(-c4ccc5cc(C#N)cnn45)cc3NC)s2)CC1 (racemic) [Example 35, 1-{5-[(3RS)-2,6-dioxopiperidin-3-yl]pyridin-2-yl}-N-ethyl-N-[(1r,4r)-4-[5-(6-{3-cyanopyrrolo[1,2-b]pyridazin-7-yl}-4-(methylamino)pyridin-3-yl)-1,3,4-thiadiazol-2-yl]cyclohexyl]piperidine-4-carboxamide] |
| 53 | 106 | CNc1cc(-c2ccc3cc(C#N)cnn23)ncc1-c1nnc(C23CCC(CN4CCN(c5ccc(C6CCC(=O)NC6=O)cn5)CC4)(CC2)CC3)s1 (racemic) [Example 25, rac-7-[5-(5-{4-[(4-{5-[(3R)-2,6-dioxopiperidin-3-yl]pyridin-2-yl}piperazin-1-yl)methyl]bicyclo[2.2.2]octan-1-yl}-1,3,4-thiadiazol-2-yl)-4-(methylamino)pyridin-2-yl]pyrrolo[1,2-b]pyridazine-3-carbonitrile] |
| 15 | 111 | CNc1cc(-c2ccc3cc(C#N)cnn23)ncc1-c1nnc(C23CCC(NC(=O)C4CCN(c5ccc(C6CCC(=O)NC6=O)cn5)CC4)(CC2)CC3)s1 (racemic) [Example 47, rac-N-{4-[5-(6-{3-cyanopyrrolo[1,2-b]pyridazin-7-yl}-4-(methylamino)pyridin-3-yl)-1,3,4-thiadiazol-2-yl]bicyclo[2.2.2]octan-1-yl}-1-{5-[(3R)-2,6-dioxopiperidin-3-yl]pyridin-2-yl}piperidine-4-carboxamide] |
| 12 | 41 | N#Cc1cnn2c(-c3cc(NC4CCOCC4)c(-c4nnc(N5CCN(CC6CCN(C(=O)c7ccc(F)c(N8CCC(=O)NC8=O)c7)CC6)CC5)s4)cn3)ccc2c1 [Example 62, 7-(5-{5-[4-({1-[3-(2,4-dioxo-1,3-diazinan-1-yl)-4-fluorobenzoyl]piperidin-4-yl}methyl)piperazin-1-yl]-1,3,4-thiadiazol-2-yl}-4-[(oxan-4-yl)amino]pyridin-2-yl)pyrrolo[1,2-b]pyridazine-3-carbonitrile] |
| 91 | 111 | CNc1cc(-c2ccc3cc(C#N)cnn23)ncc1-c1nnc(N2CCC(N3CCN(CC4CCN(c5ccc(C6CCC(=O)NC6=O)cn5)CC4)CC3)CC2)s1 (racemic) [Example 50, 7-[5-(5-{4-[4-({1-[5-(2,6-dioxopiperidin-3-yl)pyridin-2-yl]piperidin-4-yl}methyl)piperazin-1-yl]piperidin-1-yl}-1,3,4-thiadiazol-2-yl)-4-(methylamino)pyridin-2-yl]pyrrolo[1,2-b]pyridazine-3-carbonitrile] |
| 18 | 111 | N#Cc1cnn2c(-c3cc(NC4COC4)c(-c4nnc(N5CCN(CC6CCN(c7ccc(C8CCC(=O)NC8=O)cn7)CC6)CC5)s4)cn3)ccc2c1 (racemic) [Example 61, rac-7-[5-(5-{4-[(1-{5-[(3R)-2,6-dioxopiperidin-3-yl]pyridin-2-yl}piperidin-4-yl)methyl]piperazin-1-yl}-1,3,4-thiadiazol-2-yl)-4-[(oxetan-3-yl)amino]pyridin-2-yl]pyrrolo[1,2-b]pyridazine-3-carbonitrile] |

The remaining lines, values behind:

| Compound | DC50 [nM] | Dmax [%] |
| --- | --- | --- |
| CC(C)Nc1cc(-c2ccc3cc(C#N)cnn23)ncc1-c1nnc(N2CC3CCC(C2)N3CC2CCN(c3ccc([C@H]4CCC(=O)NC4=O)cn3)CC2)s1 (racemic) [Example 2, rac-7-[5-(5-{8-[(1-{5-[(3R)-2,6-dioxopiperidin-3-yl]pyridin-2-yl}piperidin-4-yl)methyl]-3,8-diazabicyclo[3.2.1]octan-3-yl}-1,3,4-thiadiazol-2-yl)-4-[(propan-2-yl)amino]pyridin-2-yl]pyrrolo[1,2-b]pyridazine-3-carbonitrile] | 53 | 67 |
| N#Cc1cnn2c(-c3cc(NC4CCOCC4)c(-c4nnc(N5CC6CCC(C5)N6CC5CCN(c6ccc([C@@H]7CCC(=O)NC7=O)cn6)CC5)s4)cn3)ccc2c1 (single isomer, unassigned) [Example 111] | 32 | 110 |
| N#Cc1cnn2c(-c3cc(NC4CCOCC4)c(-c4nnc(N5CCN(CC6CCN(c7cncc(C8CCC(=O)NC8=O)c7)CC6)CC5)s4)cn3)ccc2c1 (racemic) [Example 11, rac-7-[5-(5-{4-[(1-{5-[(3R)-2,6-dioxopiperidin-3-yl]pyridin-3-yl}piperidin-4-yl)methyl]piperazin-1-yl}-1,3,4-thiadiazol-2-yl)-4-[(oxan-4-yl)amino]pyridin-2-yl]pyrrolo[1,2-b]pyridazine-3-carbonitrile] | 32 | 77 |
| CC(C)Nc1cc(-c2ccc3cc(C#N)cnn23)ncc1-c1nnc(N2CC3CCC(C2)N3CC2CCN(c3ccc([C@@H]4CCC(=O)NC4=O)cc3)CC2)s1 (single isomer, unassigned) [Example 121] | 73 | 88 |
| N#CCNc1cc(-c2ccc3cc(C#N)cnn23)ncc1-c1nnc(N2CC3CCC(C2)N3CC2CCN(c3ccc([C@@H]4CCC(=O)NC4=O)cn3)CC2)s1 (single isomer, unassigned) [Example 133] | 13 | 110 |
| N#Cc1cnn2c(-c3cc(NC4CC4)c(-c4nnc(N5CC6CCC(C5)N6CC5CCN(c6ccc([C@H]7CCC(=O)NC7=O)cc6)CC5)s4)cn3)ccc2c1 (racemic) [Example 99, rac-7-[4-(cyclopropylamino)-5-(5-{8-[(1-{4-[(3R)-2,6-dioxopiperidin-3-yl]phenyl}piperidin-4-yl)methyl]-3,8-diazabicyclo[3.2.1]octan-3-yl}-1,3,4-thiadiazol-2-yl)pyridin-2-yl]pyrrolo[1,2-b]pyridazine-3-carbonitrile] | 56 | 73 |
| N#Cc1cnn2c(-c3cc(NC4CCOCC4)c(-c4nnc(N5CC6CCC(C5)N6C[C@H]5CC[C@H](Oc6ccc([C@@H]7CCC(=O)NC7=O)cn6)CC5)s4)cn3)ccc2c1 (racemic) [Example 108, 7-{4-[(oxan-4-yl)amino]-5-[5-(8-{[(1r,4r)-4-({5-[(3RS)-2,6-dioxopiperidin-3-yl]pyridin-2-yl}oxy)cyclohexyl]methyl}-3,8-diazabicyclo[3.2.1]octan-3-yl)-1,3,4-thiadiazol-2-yl]pyridin-2-yl}pyrrolo[1,2-b]pyridazine-3-carbonitrile] | 40 | 87 |
